Earlier results as cited in patent US9662414B2, “Dressing system” (Edixomed Limited, priority 2013, dated 2017).

Settings: healthy 70 kg-adult

SMILES: COC(=O)[C@H]1[C@@H](OC(=O)c2ccccc2)C[C@@H]2CC[C@H]1N2C [cocaine]
- generally accepted safe dosage for topical anaesthesia: 200 mg

SMILES: CCN(CC)CC(=O)Nc1c(C)cccc1C [lidocaine]
- generally accepted safe dosage for topical anaesthesia: 750 mg

SMILES: CCCCNc1ccc(C(=O)OCCN(C)C)cc1 [tetracaine]
- generally accepted safe dosage for topical anaesthesia: 50 mg
